According to ChEMBL document CHEMBL1134065, “Structure-Activity study of retinoid agonists bearing substituted dicarba-closo-dodecaborane. Relation between retinoidal activity and conformation of two aromatic nuclei” (2001):

How the values were obtained:
HL-60 [1] = assay: HL-60 differentiation-inducing activity at a dose of 10e-10 M; format: functional, Homo sapiens
HL-60 [2] = assay: HL-60 differentiation-inducing activity at a dose of 10e-8 M; format: functional, Homo sapiens
HL-60 [3] = assay: HL-60 differentiation-inducing activity at a dose of 10e-9.5 M; format: functional, Homo sapiens
HL-60 [4] = assay: HL-60 differentiation-inducing activity at a dose of 10e-9 M; format: functional, Homo sapiens
HL-60 [5] = assay: HL-60 differentiation-inducing activity at a dose of 10e-7 M; format: functional, Homo sapiens
[6] = target: T1, Retinoic acid receptor gamma (Homo sapiens) (UniProt P13631); assay: Agonistic activity on Retinoic acid receptor gamma by transcriptional activation in COS-1 cells incubated at 10e-6 M; format: functional, cell-based
T1 sequence (whole entry): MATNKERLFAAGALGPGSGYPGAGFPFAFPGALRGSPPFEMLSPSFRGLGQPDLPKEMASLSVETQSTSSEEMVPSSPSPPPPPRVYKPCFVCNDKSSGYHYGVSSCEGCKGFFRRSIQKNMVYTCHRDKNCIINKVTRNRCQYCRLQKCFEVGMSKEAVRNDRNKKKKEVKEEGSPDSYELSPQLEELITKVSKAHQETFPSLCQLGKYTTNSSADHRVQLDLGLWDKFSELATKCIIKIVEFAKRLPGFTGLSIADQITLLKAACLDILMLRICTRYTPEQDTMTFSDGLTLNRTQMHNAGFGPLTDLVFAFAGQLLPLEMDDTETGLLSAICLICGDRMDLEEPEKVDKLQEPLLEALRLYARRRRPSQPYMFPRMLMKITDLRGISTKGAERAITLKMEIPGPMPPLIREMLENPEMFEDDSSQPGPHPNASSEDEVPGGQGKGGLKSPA

[7] = target: T1, Retinoic acid receptor gamma (Homo sapiens); assay: Agonistic activity on Retinoic acid receptor gamma by transcriptional activation in COS-1 cells incubated at 10e-7 M; format: functional, cell-based
[8] = target: T1, Retinoic acid receptor gamma (Homo sapiens); assay: Agonistic activity on Retinoic acid receptor gamma by transcriptional activation in COS-1 cells incubated at 10e-8 M; format: functional, cell-based
[9] = target: T1, Retinoic acid receptor gamma (Homo sapiens); assay: Agonistic activity on Retinoic acid receptor gamma by transcriptional activation in COS-1 cells incubated at 10e-9 M; format: functional, cell-based

| SMILES | Differentiated cells (HL-60 [1]) [%] | Differentiated cells (HL-60 [2]) [%] | Differentiated cells (HL-60 [3]) [%] | Differentiated cells (HL-60 [4]) [%] | Differentiated cells (HL-60 [5]) [%] | Relative luciferase response [6] | Relative luciferase response [7] | Relative luciferase response [8] | Relative luciferase response [9] |
| --- | --- | --- | --- | --- | --- | --- | --- | --- | --- |
| CC1(C)CCC(C)(C)c2cc(NC(=O)c3ccc(C(=O)O)cc3)ccc21 [TAMIBAROTENE] | ~5 | ~85 | ~40 | ~75 |  |  |  |  |  |
| CC1=C(/C=C/C(C)=C/C=C/C(C)=C/C(=O)O)C(C)(C)CCC1 [TRETINOIN] |  | ~70 |  | ~2 | ~85 | 30 | 14 | 12 | 6 |
